Test results taken from PMC9046208, “Foldamers reveal and validate therapeutic targets associated with toxic α-synuclein self-assembly” (Nature Communications, 2022).
“Also recorded” adds a separate entry of the source.

Experiments:
αS oligomers = target: T1, αS oligomers (Homo sapiens, UniProt P37840); assay: Gel shift assay of αS supernatant (oligomers); assay type: biochemical; details: 70 µM αS, 0.1, 0.2, 0.5 mol eq. ligand, 7 days
T1 construct: made in house; host or cells: Escherichia coli BL21(DE3), periplasm
Description: Supplementary Fig. 8. Gel-shift images of αS (70 µM) incubated in the absence (lane 2) and presence of SK-129 (a) and EGCG (b) at sub-stoichiometric ratios (0.1, 0.2, 0.5 mol eq.) for 7 days at 370C with constant shaking. The solutions of αS in the absence and presence of ligands were centrifuged and the supernatant was used for the gel shift assay. The arrows indicate the formation of various αS structures. The gel shift assay of the supernatant of the αS aggregated […]
fibers. Most of the αS was found in the supernatant as a mo nomer and a dimer in the presence of […]
their formation. The gel experiments were conducted at least two times to confirm the reproducibility of the data.
(1 picture or pasted object on this page, not shown here)

αS = target: T2, αS (Homo sapiens, UniProt P37840); assay: Fluorescence polarization titration, SK-129F with WT αS; assay type: binding
T2 construct: made in house; host or cells: Escherichia coli BL21(DE3), periplasm
Description: All Fluorescence Polarization (FP) experiments were conducted on a Varian Cary Eclipse fluorometer (Agilent, Santa Clara, CA) equipped with a polarizer. The stock solutions of αS, 1 mM or 100 μM in 1x PBS buffer, were serially added into a solution of 10 μM SK-129F (300 μL in 1x PBS buffer) while stirring in a quartz cuvette (Fireflysci, Staten Island, NY). All FP measurements were conducted in triplicates in 20 mM Tris, 100 mM NaCl, pH 7.2 at 20 °C. The excitation and emissions wavelengths were set at 490 nm and 520 nm, respectively. Each titration was equilibrated for five min before measurements were taken for the next addition of αS solution. The addition of αS solution was continuous until no more change in the FP signal was observed. Similar conditions were used for the titration of various αS mutants and Aβ42 peptide against SK-129F. A stock solution of Aβ42 (1 mM or 100 μM in 1x PBS buffer on ice) was sequentially added to a solution of 10 μM SK-129F (300 μL in 1x PBS buffer) until no more change in the FP signal was observed. The polarization of each point was calculated using Eq. 1:1 FP=I∥−I⊥/I∥+I⊥ Where I∥ is fluorescence intensity parallel to the excitation plane and I⊥ is fluorescence intensity perpendicular to the excitation plane. The plot between the relative change in the FP signal against the concentration of the protein (αS/ Aβ42) was fit using one site binding model and Kd between SK-129F and αS (αS mutants/Aβ42) was extracted from the fit. For displacement titration, a 10 μM SK-129F solution was saturated with 10 mole equivalents of αS (300 μL in 1x PBS buffer). To this solution, a stock solution of SK-129 (1 mM or 10 mM) was serially added to displace SK-129F from the αS-SK-129F complex. The solution of SK-129 was continuously added until no more change in the FP signal was observed. A plot between the relative change in the FP signal against the concentration of SK-129 was fit using a one-site competitive binding model and Kd between SK-129 and αS was extracted from the fit.

αS1 = target: T3, αS1 (Homo sapiens, UniProt P37840, DEL6-12); assay: Fluorescence polarization titration, SK-129F with αS1; assay type: binding; details: FP
T3 construct: made in house; host or cells: Escherichia coli BL21(DE3), periplasm
Description: (§1) All Fluorescence Polarization (FP) experiments were conducted on a Varian Cary Eclipse fluorometer (Agilent, Santa Clara, CA) equipped with a polarizer. The stock solutions of αS, 1 mM or 100 μM in 1x PBS buffer, were serially added into a solution of 10 μM SK-129F (300 μL in 1x PBS buffer) while stirring in a quartz cuvette (Fireflysci, Staten Island, NY). All FP measurements were conducted in triplicates in 20 mM Tris, 100 mM NaCl, pH 7.2 at 20 °C. The excitation and emissions wavelengths were set at 490 nm and 520 nm, respectively. Each titration was equilibrated for five min before measurements were taken for the next addition of αS solution. The addition of αS solution was continuous until no more change in the FP signal was observed. Similar conditions were used for the titration of various αS mutants and Aβ42 peptide against SK-129F. A stock solution of Aβ42 (1 mM or 100 μM in 1x PBS buffer on ice) was sequentially added to a solution of 10 μM SK-129F (300 μL in 1x PBS buffer) until no more change in the FP signal was observed. The polarization of each point was calculated using Eq. 1:1 FP=I∥−I⊥/I∥+I⊥ Where I∥ is fluorescence intensity parallel to the excitation plane and I⊥ is fluorescence intensity perpendicular to the excitation plane. […]

αS2 = target: T4, αS2 (Homo sapiens, UniProt P37840, DEL15-23); assay: Fluorescence polarization titration, SK-129F with αS2; assay type: binding; details: FP
T4 construct: made in house
Description: as §1

αS3 = target: T5, αS3 (Homo sapiens, UniProt P37840, DEL36-45); assay: Fluorescence polarization titration, SK-129F with αS3; assay type: binding; details: FP
T5 construct: Synuclein Residues (1-140); made in house
Description: as §1

αS4 = assay: Fluorescence polarization titration, SK-129F with αS4; assay type: binding; details: FP
Description: as §1

Row | Compound | αS species in gel shift assay (αS oligomers) | Kd (αS; FP fit, WT αS, trial 1) | Kd (αS; FP fit, WT αS, trial 2) | Kd (αS; FP fit, WT αS, trial 3) | Kd (αS; FP titration, 10 μM SK-129F with αS, mean ± s.d., n = 3) | binding affinity weaker than WT αS (αS1) | binding affinity weaker than WT αS (αS2) | binding affinity weaker than WT αS (αS3) | binding affinity weaker than WT αS (αS4)
1 | O=C(O[C@@H]1Cc2c(O)cc(O)cc2O[C@@H]1c1cc(O)c(O)c(O)c1)c1cc(O)c(O)c(O)c1 [EGCG, Epigallocatechin Gallate] | higher-order toxic oligomers; also recorded: higher-order oligomers were observed | – | – | – | – | – | – | – | –
2 | COC(=O)c1cc(OCC(=O)O)c2cccc(NC(=O)c3cc(OC(C)C)c4cccc(NC(=O)c5cc(OCC(=O)O)c6cccc(NC(=O)c7cc(OC(C)C)c8cccc(NC(=S)NCC(=O)Nc9ccc(-c%10c%11ccc(=O)cc-%11oc%11cc(O)ccc%10%11)c(C(=O)O)c9)c8n7)c6n5)c4n3)c2n1 [SK-129F] | – | 864 nM | 791 nM | 758 nM | 810 ± 90 nM | 3–4 fold | 3–4 fold | ~ 8 fold | > 10 fold
